According to EP0844825B1, “INSECTICIDAL N-(SUBSTITUTED ARYLMETHYL)-4- BIS(SUBSTITUTED PHENYL OR PYRIDYL)METHYL]PIPERIDINES” (FMC CORPORATION, priority 1995, dated 1996):

System: tobacco budworm (Heliothis virescens [Fabricius])
Assay: Diet test: test chemical incorporated into artificial diet of tobacco budworm larvae, 5-day exposure
Assay type: in vivo
Conditions: for mortality at 100 µM / IC50 / LC50: Heliothis virescens, 120 h; for mortality at 100 µM: feed or water, read-out: Percent Mortality; for IC50: negative log of the concentration that provides 50% growth inhibition, by linear regression, read-out: pl50 (converted); for IC50 / LC50 / Percent Growth Inhibition: 5 days, * = average of more than one test; for LC50: negative log of the concentration that provides 50% mortality, read-out: pLC50 (converted); for Percent Growth Inhibition: rate of application 4 (negative log of molar concentration in the diet), second instar larvae, 25°C
Description: Candidate insecticides were incorporated into an artificial diet for evaluation of insecticidal activity against the tobacco budworm (Heliothis virescens [Fabricius]) in the following manner. Stock solutions of test chemical in dimethyl sulfoxide, ranging from […], were prepared for each rate of application. One hundred microliters of each of the stock solutions was manually stirred into 50 mL of a molten (65-70°C) wheat germ-based artificial diet. The 50 mL of molten diet containing the test chemical was poured evenly into twenty wells in the outer two rows on each side of a twenty-five well, five row plastic tray. (Each well in the tray was about 1 cm in depth, with an opening of 3 cm by 4 cm at the lip.) Molten diet containing only dimethyl sulfoxide at the levels used in the test chemical-treated diet was poured into the five wells in the third (center) row of the tray. Each tray therefore contained one test chemical at a single rate of application, together with an untreated control. The rates of application, expressed as the negative log of the molar concentration, and the corresponding concentrations of the stock solution prepared for each rate are shown below:
Single second instar tobacco budworm larvae, selected at a stage of growth at which they uniformly weigh about 5 mg each, were placed in each well. Upon completion of infestation, a sheet of clear plastic was heat-sealed over the top of the tray by use of a common household flat.iron. The trays were held at 25°C at 60% relative humidity for five days in a growth chamber. Lighting was set at 14 hours of light and 10 hours of darkness. After the 5-day exposure period, mortality counts were taken, and the surviving insects were weighed. From the weights of the surviving insects that fed on the treated diet as compared to those insects that fed on the untreated diet, the percent growth inhibition caused by each test chemical was determined. […] Also, where possible, the negative log of the concentration of the test chemical that provided 50% mortality (pLC50) was determined.

SMILES | mortality at 100 µM [%] | also measured
Cc1cccnc1Oc1ccc(C[N+]2([O-])CCC(C(O)(c3ccc(C(F)(F)F)cc3)c3ccc(C(F)(F)F)cc3)CC2)cc1 (stereo not shown) [Compound 58] | 100 | 
Cc1ccc[n+]([O-])c1Oc1ccc(CN2CCC(C(O)(c3ccc(C(F)(F)F)cc3)c3ccc(C(F)(F)F)cc3)CC2)cc1 [Compound 59] | 100 | 
OC(c1ccc(C(F)(F)F)cc1)(c1ccc(C(F)(F)F)cc1)C1CCN(Cc2ccc(Oc3ncccc3C(F)(F)F)cc2)CC1 [Compound 60] | 100 | 
[O-][N+]1(Cc2ccc(Oc3ncccc3C(F)(F)F)cc2)CCC(C(O)(c2ccc(C(F)(F)F)cc2)c2ccc(C(F)(F)F)cc2)CC1 (stereo not shown) [Compound 61] | 100 | 
Cc1ccnc(Oc2ccc(CN3CCC(C(O)(c4ccc(C(F)(F)F)cc4)c4ccc(C(F)(F)F)cc4)CC3)cc2)c1 [Compound 62] | 100 | IC50: 0.631 µM; LC50: 6.31 µM; Percent Growth Inhibition: 100%
Cc1ccnc(Oc2ccc(C[N+]3([O-])CCC(C(O)(c4ccc(C(F)(F)F)cc4)c4ccc(C(F)(F)F)cc4)CC3)cc2)c1 (stereo not shown) [Compound 63] | 100 | 
OC(c1ccc(C(F)(F)F)cc1)(c1ccc(C(F)(F)F)cc1)C1CCN(Cc2ccc(Oc3cc(C(F)(F)F)ccn3)cc2)CC1 [Compound 64] | 100 | 
[O-][n+]1ccc(C(F)(F)F)cc1Oc1ccc(CN2CCC(C(O)(c3ccc(C(F)(F)F)cc3)c3ccc(C(F)(F)F)cc3)CC2)cc1 [Compound 65] | 25 | 
OC(c1ccc(C(F)(F)F)cc1)(c1ccc(C(F)(F)F)cc1)C1CCN(Cc2ccc(Oc3ccc(Cl)cn3)cc2)CC1 [Compound 66] | 100 | 
[O-][N+]1(Cc2ccc(Oc3ccc(Cl)cn3)cc2)CCC(C(O)(c2ccc(C(F)(F)F)cc2)c2ccc(C(F)(F)F)cc2)CC1 (stereo not shown) [Compound 67] | 70 | 
Cc1ccc(Oc2ccc(CN3CCC(C(O)(c4ccc(C(F)(F)F)cc4)c4ccc(C(F)(F)F)cc4)CC3)cc2)nc1 [Compound 68] | 90 | 
Cc1ccc(Oc2ccc(C[N+]3([O-])CCC(C(O)(c4ccc(C(F)(F)F)cc4)c4ccc(C(F)(F)F)cc4)CC3)cc2)nc1 (stereo not shown) [Compound 69] | 100 | 
OC(c1ccc(C(F)(F)F)cc1)(c1ccc(C(F)(F)F)cc1)C1CCN(Cc2ccc(Oc3ccc(C(F)(F)F)cn3)cc2)CC1 [Compound 70] | 100 | 
[O-][N+]1(Cc2ccc(Oc3ccc(C(F)(F)F)cn3)cc2)CCC(C(O)(c2ccc(C(F)(F)F)cc2)c2ccc(C(F)(F)F)cc2)CC1 (stereo not shown) [Compound 71] | 100 | 
N#Cc1ccc(Oc2ccc(CN3CCC(C(O)(c4ccc(C(F)(F)F)cc4)c4ccc(C(F)(F)F)cc4)CC3)cc2)nc1 [Compound 72] | 100 | 
N#Cc1ccc(Oc2ccc(C[N+]3([O-])CCC(C(O)(c4ccc(C(F)(F)F)cc4)c4ccc(C(F)(F)F)cc4)CC3)cc2)nc1 (stereo not shown) [Compound 73] | 100 | 
Cc1cccc(Oc2ccc(CN3CCC(C(O)(c4ccc(C(F)(F)F)cc4)c4ccc(C(F)(F)F)cc4)CC3)cc2)n1 [Compound 75] | 100 | 
Cc1cccc(Oc2ccc(C[N+]3([O-])CCC(C(O)(c4ccc(C(F)(F)F)cc4)c4ccc(C(F)(F)F)cc4)CC3)cc2)n1 (stereo not shown) [Compound 76] | 100 | IC50: 0.631 µM; LC50: 6.31 µM; Percent Growth Inhibition: 100%
Cc1cccc(Oc2ccc(C[N+]3([O-])CCC(C(O)(c4ccc(C(F)(F)F)cc4)c4ccc(C(F)(F)F)cc4)CC3)cc2)[n+]1[O-] (stereo not shown) [Compound 77] | 60 | 
OC(c1ccc(C(F)(F)F)cc1)(c1ccc(C(F)(F)F)cc1)C1CCN(Cc2ccc(OCc3ccccn3)cc2)CC1 [Compound 78] | 100 | 
[O-][N+]1(Cc2ccc(OCc3ccccn3)cc2)CCC(C(O)(c2ccc(C(F)(F)F)cc2)c2ccc(C(F)(F)F)cc2)CC1 (stereo not shown) [Compound 79] | 100 | 
[O-][N+]1(Cc2ccc(OCc3cccnc3)cc2)CCC(C(O)(c2ccc(C(F)(F)F)cc2)c2ccc(C(F)(F)F)cc2)CC1 (stereo not shown) [Compound 82] | 25 | 
